Source: patent US20230066011A1, “PYRROLOPYRIMIDINE DERIVATIVE, AND PHARMACEUTICAL COMPOSITION FOR PREVENTING OR TREATING PROTEIN KINASE-RELATED DISEASE COMPRISING SAME AS ACTIVE INGREDIENT” (VORONOI CO., LTD., priority 2019, published 2023)

How the values were obtained:
Format in all cases: biochemical
[1] = biological target: LRRK2 (G2019S) (Homo sapiens, UniProt Q5S007, G2019S); assay: LRRK2 G2019S enzyme inhibition, ADP-Glo kinase assay; set-up: purchased SignalChem L10-12GG; settings: ATP 25 μM
Description: To evaluate an inhibitory activity of the compound according to the present invention against LRRK2, LRRK2 (G2019S), DYRK1, CLK1, and TTK kinases, experiments were performed as follows.
Each of the Example compounds was reacted with a purified human LRRK2 G2019S (L10-12GG, SignalChem) enzyme to evaluate an ability to inhibit an enzyme using a method as described below. A composition of 40 mM Tris-HCl (pH 7.4), 20 mM MgCl2, 0.5 mg/mL BSA, and 50 μM DTT was used as a reaction buffer, and all reactions of test substances were performed in the reaction buffer. Each of the compounds was diluted […] from a 10 mM DMSO stock using a serial dilution method, and enzyme activities were measured at final compound concentrations of 50, 10, 2, 0.4, 0.08, 0.016, 0.0032, 0.00064, 0.000128, 0.0000256, 0.00000512, and 0.000001024 μM. In the test, purified ATP (25 μM) and an enzyme substrate (0.2 μg) were reacted with a human LRRK2 G2019S (16 ng) enzyme at 25° C. for 2 hours, and the enzyme activities were then determined using an in vitro ADP-Glo™ kinase assay (Promega). An enzyme-activity reaction solution, an ADP-Glo reaction solution, and an enzyme-ability detection solution were reacted at a ratio of 2:2:1 to measure a degree of inhibition of the enzyme activity with luminescence. The degree of inhibition of the enzyme activity according to the treatment concentration of each of the compounds was calculated based on the fluorescence of the enzyme activity of the solvent control which was not treated with the compound. In this case, the concentration of each of the compounds inhibiting 50% of the enzyme activity was determined to be an IC50 (nM) value, and calculated using Prism (Version 5.01; GraphPad) software.

[2] = biological target: T1, human GST-DYRK1A (Homo sapiens, UniProt Q13627); assay: GST-DYRK1A enzyme inhibition, ADP-Glo kinase assay; settings: ATP 10 μM, GST-DYRK1A full length, read-out: DYRK1 IC50
T1 construct: purified human GST-DYRK1A (full length, Thermo Scientifics) enzyme; purchased Thermo Scientifics
How it was run: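 Full-length human GST-DYRK1A (10 ng) with 10 μM ATP and specific substrate in 40 mM Tris-HCl pH 7.4, 20 mM MgCl2, 0.5 mg/mL BSA, 50 μM DTT, 1 h at 25 °C. ADP formation read by ADP-Glo luminescence relative to solvent control; IC50 from three data sets.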

[3] = biological target: T2, human GST-CLK1 (Homo sapiens, UniProt P49759); assay: GST-CLK1 enzyme inhibition, ADP-Glo kinase assay; settings: ATP 10 μM, GST-CLK1 129-end
T2 construct: purified human GST-CLK1 (129-end, SignalChem) enzyme; purchased SignalChem
How it was run: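 Human GST-CLK1 (129-end, 3 ng) reacted with substrate and 10 μM ATP for 1 h at 25° C in 40 mM Tris-HCl pH 7.4, 20 mM MgCl2, 0.5 mg/mL BSA, 50 μM DTT. ADP-Glo luminescence was normalised to solvent control; IC50 (nM) from 3 data sets.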

Chain of LRRK2 (G2019S) (Q5S007 970-2527 G2019S limits assumed): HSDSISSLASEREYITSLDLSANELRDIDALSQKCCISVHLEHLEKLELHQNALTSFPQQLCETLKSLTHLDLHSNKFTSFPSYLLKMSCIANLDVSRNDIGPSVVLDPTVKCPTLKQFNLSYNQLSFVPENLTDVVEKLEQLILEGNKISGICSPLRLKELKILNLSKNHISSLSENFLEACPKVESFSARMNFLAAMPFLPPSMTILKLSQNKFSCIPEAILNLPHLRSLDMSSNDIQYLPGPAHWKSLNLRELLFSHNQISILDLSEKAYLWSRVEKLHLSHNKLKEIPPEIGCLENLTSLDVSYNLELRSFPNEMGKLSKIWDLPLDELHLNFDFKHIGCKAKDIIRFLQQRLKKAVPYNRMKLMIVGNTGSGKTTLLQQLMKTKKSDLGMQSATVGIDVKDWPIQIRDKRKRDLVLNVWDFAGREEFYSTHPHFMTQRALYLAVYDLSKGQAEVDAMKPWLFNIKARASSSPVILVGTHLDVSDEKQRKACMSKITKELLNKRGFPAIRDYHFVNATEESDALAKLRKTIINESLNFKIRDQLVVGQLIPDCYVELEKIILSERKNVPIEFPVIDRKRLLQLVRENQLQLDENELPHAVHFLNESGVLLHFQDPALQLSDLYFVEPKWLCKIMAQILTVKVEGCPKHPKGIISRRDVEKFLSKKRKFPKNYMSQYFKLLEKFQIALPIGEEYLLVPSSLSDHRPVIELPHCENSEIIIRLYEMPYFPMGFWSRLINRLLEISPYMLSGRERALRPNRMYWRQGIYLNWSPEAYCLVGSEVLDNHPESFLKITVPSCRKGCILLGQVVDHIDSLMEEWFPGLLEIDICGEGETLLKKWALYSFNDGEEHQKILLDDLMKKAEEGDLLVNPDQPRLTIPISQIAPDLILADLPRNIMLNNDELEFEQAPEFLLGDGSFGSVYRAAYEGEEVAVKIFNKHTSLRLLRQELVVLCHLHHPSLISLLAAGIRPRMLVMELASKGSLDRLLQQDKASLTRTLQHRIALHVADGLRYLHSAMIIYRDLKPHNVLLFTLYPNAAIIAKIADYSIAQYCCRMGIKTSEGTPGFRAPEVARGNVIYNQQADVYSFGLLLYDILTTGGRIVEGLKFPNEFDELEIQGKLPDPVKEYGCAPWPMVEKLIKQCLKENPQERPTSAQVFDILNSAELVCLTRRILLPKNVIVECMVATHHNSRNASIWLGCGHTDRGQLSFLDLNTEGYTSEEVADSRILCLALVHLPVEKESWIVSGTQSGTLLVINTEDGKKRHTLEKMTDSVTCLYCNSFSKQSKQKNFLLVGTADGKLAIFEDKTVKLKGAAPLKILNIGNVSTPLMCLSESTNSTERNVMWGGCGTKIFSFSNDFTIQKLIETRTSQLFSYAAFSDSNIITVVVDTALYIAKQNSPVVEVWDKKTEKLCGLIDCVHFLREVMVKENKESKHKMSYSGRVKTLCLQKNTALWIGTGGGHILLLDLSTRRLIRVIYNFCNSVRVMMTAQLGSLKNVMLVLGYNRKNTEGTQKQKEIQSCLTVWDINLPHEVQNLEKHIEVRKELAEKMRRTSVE
T2 sequence (P49759 129-484 limits assumed): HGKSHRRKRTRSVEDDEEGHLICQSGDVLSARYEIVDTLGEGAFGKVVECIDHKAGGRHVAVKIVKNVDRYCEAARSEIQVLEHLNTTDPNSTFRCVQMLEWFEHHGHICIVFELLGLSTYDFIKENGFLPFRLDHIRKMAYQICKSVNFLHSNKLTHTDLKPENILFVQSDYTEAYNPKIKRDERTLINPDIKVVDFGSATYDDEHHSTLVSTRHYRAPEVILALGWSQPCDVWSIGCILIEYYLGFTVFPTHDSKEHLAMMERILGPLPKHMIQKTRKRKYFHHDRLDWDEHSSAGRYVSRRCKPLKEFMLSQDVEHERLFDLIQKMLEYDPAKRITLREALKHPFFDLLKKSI

Row | IC50 [1] | IC50 [2] | IC50 [3] | Compound
1 | < 100 nM | 301 to 1000 nM | 301 to 1000 nM | COc1cc(S(=O)(=O)N2CCC(N3CCOCC3)CC2)ccc1Nc1nc(NC2CC2)c2cc[nH]c2n1 [Example 54, N^4-cyclopropyl-N^2-(2-methoxy-4-((4-morpholinopiperidin-1-yl)sulfonyl)phenyl)-7H-pyrrolo[2,3-d]pyrimidine-2,4-diamine]
2 | < 100 nM | 301 to 1000 nM | 301 to 1000 nM | COc1cc(S(C)(=O)=O)ccc1Nc1nc(NC2CC2)c2cc[nH]c2n1 [Example 55, N^4-cyclopropyl-N^2-(2-methoxy-4-(methylsulfonyl)phenyl)-7H-pyrrolo[2,3-d]pyrimidine-2,4-diamine]
3 | < 100 nM | 301 to 1000 nM | 301 to 1000 nM | O=C(c1ccc(Nc2nc(NC3CC3)c3cc[nH]c3n2)c2c1OCCO2)N1CCOCC1 [Example 56, (8-((4-(cyclopropylamino)-7H-pyrrolo[2,3-d]pyrimidin-2-yl)amino)-2,3-dihydrobenzo[b][1,4]dioxin-5-yl)(morpholino)methanone]
4 | < 100 nM | 301 to 1000 nM | 301 to 1000 nM | COc1cc(S(=O)(=O)N2CCOCC2)ccc1Nc1nc(NC2CC2)c2cc[nH]c2n1 [Example 57, N^4-cyclopropyl-N^2-(2-methoxy-4-(morpholinosulfonyl)phenyl)-7H-pyrrolo[2,3-d]pyrimidine-2,4-diamine]
5 | < 100 nM | 301 to 1000 nM | 301 to 1000 nM | CC[C@@H](C)Nc1nc(Nc2ccc(S(=O)(=O)N3CCOCC3)cc2OC)nc2[nH]ccc12 [Example 59, (R)-N^4-(sec-butyl)-N^2-(2-methoxy-4-(morpholinosulfonyl)phenyl)-7H-pyrrolo[2,3-d]pyrimidine-2,4-diamine]
6 | 101 to 300 nM | 301 to 1000 nM | 301 to 1000 nM | CC[C@H](C)Nc1nc(Nc2ccc(S(=O)(=O)N3CCOCC3)cc2OC)nc2[nH]ccc12 [Example 60, (S)-N^4-(sec-butyl)-N^2-(2-methoxy-4-(morpholinosulfonyl)phenyl)-7H-pyrrolo[2,3-d]pyrimidine-2,4-diamine]
7 | < 100 nM | 301 to 1000 nM | 301 to 1000 nM | COc1cc(S(=O)(=O)N2CCOCC2)ccc1Nc1nc(NC2CCOCC2)c2c(C#N)c[nH]c2n1 [Example 76, 2-((2-methoxy-4-(morpholinosulfonyl)phenyl)amino)-4-((tetrahydro-2H-pyran-4-yl)amino)-7H-pyrrolo[2,3-d]pyrimidine-5-carbonitrile]
8 | < 100 nM | 301 to 1000 nM | 301 to 1000 nM | COc1cc(S(C)(=O)=O)ccc1Nc1nc(NCC(C)C)c2c(C#N)c[nH]c2n1 [Example 100, 4-(isobutylamino)-2-((2-methoxy-4-(methylsulfonyl)phenyl)amino)-7H-pyrrolo[2,3-d]pyrimidine-5-carbonitrile]
9 | < 100 nM | 301 to 1000 nM | 301 to 1000 nM | COc1cc(S(C)(=O)=O)ccc1Nc1nc(NCC2CC2)c2c(C#N)c[nH]c2n1 [Example 110, 4-((cyclopropylmethyl)amino)-2-((2-methoxy-4-(methylsulfonyl)phenyl)amino)-7H-pyrrolo[2,3-d]pyrimidine-5-carbonitrile]
10 | < 100 nM | 301 to 1000 nM | 101 to 300 nM | CC(C)CNc1nc(Nc2ccc(C(=O)N3CCOCC3)c3c2OCCO3)nc2[nH]cc(C#N)c12 [Example 121, 4-(isobutylamino)-2-((8-(morpholine-4-carbonyl)-2,3-dihydrobenzo[b][1,4]dioxin-5-yl)amino)-7H-pyrrolo[2,3-d]pyrimidine-5-carbonitrile]
11 | < 100 nM | < 100 nM | < 100 nM | CCNc1nc(Nc2ccc(P3(=O)CCN(Cc4ccc(OC)cc4OC)CC3)cn2)nc2[nH]cc(C(F)(F)F)c12 [Example 153, 1-(2,4-dimethoxybenzyl)-4-(6-((4-(ethylamino)-5-(trifluoromethyl)-7H-pyrrolo[2,3-d]pyrimidin-2-yl)amino)pyridin-3-yl)-1,4-azaphosphinane 4-oxide]
12 | < 100 nM | 301 to 1000 nM | < 100 nM | O=C(c1ccc(Nc2nc(N[C@H]3CCOC3)c3c(C(F)(F)F)c[nH]c3n2)c2c1OCCO2)N1CCOCC1 [Example 209, (S)-morpholino(8-((4-((tetrahydrofuran-3-yl)amino)-5-(trifluoromethyl)-7H-pyrrolo[2,3-d]pyrimidin-2-yl)amino)-2,3-dihydrobenzo[b][1,4]dioxin-5-yl)methanone]
13 | < 100 nM | 301 to 1000 nM | 301 to 1000 nM | COc1cc(S(C)(=O)=O)ccc1Nc1nc(N[C@@H]2CCOC2)c2c(C(F)(F)F)c[nH]c2n1 [Example 210, (R)-N^2-(2-methoxy-4-(methylsulfonyl)phenyl)-N^4-(tetrahydrofuran-3-yl)-5-(trifluoromethyl)-7H-pyrrolo[2,3-d]pyrimidine-2,4-diamine]
14 | < 100 nM | 101 to 300 nM | 101 to 300 nM | CNc1nc(Nc2ccc(P3(=O)CCN(C4CC4)CC3)cc2OC)nc2[nH]cc(C(F)(F)F)c12 [Example 216, 1-cyclopropyl-4-(3-methoxy-4-((4-(methylamino)-5-(trifluoromethyl)-7H-pyrrolo[2,3-d]pyrimidin-2-y)amino)phenyl)-1,4-azaphosphinane 4-oxide]
15 | < 100 nM | 301 to 1000 nM | 301 to 1000 nM | N#Cc1c[nH]c2nc(Nc3ccc(C(=O)N4CCOCC4)c4c3OCCO4)nc(NC3CCCCC3)c12 [Example 248]
16 | < 100 nM | < 100 nM | < 100 nM | COc1cc(P2(=O)CCN(C3COC3)CC2)ccc1Nc1nc(NC2CCC2)c2c(C#N)c[nH]c2n1 [Example 288, 4-(cyclo-butylamino)-2-((2-methoxy-4-(1-(oxetan-3-yl)-4-oxido-1,4-azaphosphinan-4-yl)phenyl)amino)-7H-pyrrolo[2,3-d]pyrimidine-5-carbonitrile]
17 | < 100 nM | 301 to 1000 nM | < 100 nM | N#Cc1c[nH]c2nc(Nc3ccc(C(=O)N4CCN(C5COC5)CC4)c4c3OCCO4)nc(NC3CCC3)c12 [Example 289, 4-(cyclo-butylamino)-2-((8-(4-(oxetan-3-yl)piperazine-1-carbonyl)-2,3-dihydrobenzo[b] [1,4]dioxin-5-yl)amino)-7H-pyrrolo[2,3-d]pyrimidine-5-carbonitrile]
18 | < 100 nM | 301 to 1000 nM | 301 to 1000 nM | COc1cc(P2(=O)CCN(C3COC3)CC2)ccc1Nc1nc(NCCS(C)(=O)=O)c2c(C#N)c[nH]c2n1 [Example 314, 2-((2-methoxy-4-(1-(oxetan-3-yl)-4-oxido-1,4-azaphosphinan-4-yl)phenyl)amino)-4-((2-(methyl-sulfonyl)eth-yl)amino)-7H-pyrrolo[2,3-d]pyrimidine-5-carbonitrile]
19 | 101 to 300 nM | 301 to 1000 nM | < 100 nM | N#Cc1c[nH]c2nc(Nc3ccc(C(=O)N4CC(CO)(CO)C4)c4c3OCCO4)nc(NC3CC3)c12 [Example 332, 2-((8-(3,3-bis (hydroxymethyl)azetidine-1-carbonyl)-2,3-dihydrobenzo[b] [1,4]dioxin-5-yl)amino)-4-(cyclopropyl-amino)-7H-pyrrolo[2,3-d]pyrimidine-5-carbonitrile]
20 | < 100 nM | 301 to 1000 nM | < 100 nM | CS(=O)(=O)CCNc1nc(Nc2ccc(C(=O)N3CCC(N4CCOCC4)CC3)c3c2OCC3)nc2[nH]cc(C#N)c12 [Example 345, 4-((2-(methyl-sulfonyl)eth-yl)amino)-2-((4-(4-morpholino-piperidine-1-carbonyl)-2,3-dihydro-benzofuran-7-yl)amino)-7H-pyrrolo[2,3-d]pyrimidine-5-carbonitrile]
21 | < 100 nM | < 100 nM | < 100 nM | CC(C)Nc1nc(Nc2ccc(C(=O)N3CCC(N4CCOCC4)CC3)c3c2OCC3)nc2[nH]cc(C#N)c12 [Example 353, 4-(isopropylamino)-2-((4-(4-morpholino-piperidine-1-carbonyl)-2,3-dihydro-benzofuran-7-yl)amino)-7H-pyrrolo[2,3-d]pyrimidine-5-carbonitrile]
